Where two headings read alike, the source gives them in different places.
Tests used:
[1] = Pharmacokinetic study in male SD rats; type: in vivo; conditions: rat, plasma
Protocol: Experimental Example 4: Pharmacokinetic Study of Compounds in Male SD Rats
(§1) The compounds were prepared into solutions using a mixed vehicle composed of 5% dimethyl sulfoxide, 20% (30% solutol), and 75% normal saline. The compound solutions were intragastrically administered to male SD rats at a dose of 5.0 mg/kg, and the blood collection time points were: 15 min, 30 min, 1 h, 2 h, 4 h, 6 h, 8 h, 10 h, and 24 h.
as §1, with “intravenously injected into” for “intragastrically administered to”, “1.0” for “5.0”, “were: 5 min,” for “were:”, “4h,” for “4 h,”, “8h,” for “8 h,”
Intravenous catheterization was performed on the animals the day before the administration. After the administration, blood samples of about 300 μL were collected from the jugular vein and placed into anticoagulation tubes containing EDTA-K2. The blood samples were centrifuged at 5000 rpm at 4° C. for 10 min to give plasma samples. The plasma samples were prepared within 30 min after blood collection. The plasma samples were stored in a −80° C. freezer before testing.

[2] = Stability in rat liver microsomes; type: in vitro ADME; conditions: rat liver microsomes 0.5 mg protein/mL, 1 μM test substance, β-NADPH 1 mM, 37° C.
Protocol: (§2) Experimental Example 2: Evaluation of Stability of Compounds Disclosed Herein in Liver Microsomes
(§3) Composition of experimental incubation system:
(§4) An appropriate amount of the compound was precisely weighed out and dissolved in DMSO to prepare a 10.0 mM stock solution. The 10.0 mM stock solution was diluted with DMSO to 1.0 mM, and then diluted with phosphate buffer (containing 3 mM MgCl2) to prepare a 10 μM test substance working solution for later use (DMSO content in the reaction system: 0.1%).
(§5) An appropriate amount of β-NADPH was precisely weighed out and then prepared into a 5 mM β-NADPH working solution using phosphate buffer (containing 3 mM MgCl2) for later use.
(§6) (1) The liver microsomes (20 mg protein/mL) were taken out from a −80° C. freezer and pre-incubated on a 37° C. water bath thermostatic oscillator for 3 min to thaw for later use.
(§7) (2) A mixed solution of the incubation system (without β-NADPH) was prepared according to “composition of experimental incubation system” described above, and pre-incubated on a 37° C. water bath thermostatic oscillator for 2 min.
(§8) (3) Control group (without β-NADPH): 10 μL of phosphate buffer (containing 3 mM MgCl2) and 40 μL of the mixed solution of the incubation system in step (2) were taken and mixed, and the mixture was vortexed for 30 s and mixed well, resulting in a total reaction volume of 50 μL; the sample was duplicated. The mixture was placed on a 37° C. water bath thermostatic oscillator for incubation, and timing was started, with termination time points set at 0 min and 60 min.
(§9) (4) Sample group: 10 μL of the β-NADPH solution (5 mM) and 40 μL of the mixed solution in step (2) were taken and mixed, resulting in a total reaction volume of 50 μL; the mixture was vortexed for 30 s and mixed well; the sample was duplicated. The mixture was placed on a 37° C. water bath thermostatic oscillator for incubation, and timing was started, with termination time points set at 0 min, 5 min, 10 min, 20 min, 30 min, and 60 min.
(§10) (5) The mixture was vortexed for 5 min and then centrifuged at 4000 rpm for 10 min.
(§11) (6) 50 μL of the supernatant was taken and added to 150 μL of water, and the resulting mixture was vortexed and mixed well before LC/MS/MS analysis.
(§12) The half-life (t1/2) and clearance rate (CL) were calculated using the following first-order kinetic formula
(§13) Notes: k denotes the slope of the logarithm of the remaining amount of a compound vs. time, and Vd denotes apparent volume of distribution.

[3] = Stability in canine liver microsomes; type: in vitro ADME; conditions: dog, canine liver microsomes 0.5 mg protein/mL, 1 μM test substance, β-NADPH 1 mM, 37° C.
Protocol: as §2, §3, §4, §5, §6, §7, §8, §9, §10, §11, §12, §13

[4] = target: T1, THP-1 cell NLRP3 (Homo sapiens, UniProt Q96P20); test: Inhibitory activity against cell NLRP3 inflammasomes in THP-1 cells (LPS + nigericin, ELISA of supernatant); type: cell-based; conditions: PMA-differentiated THP-1 cells, LPS 500 ng/mL 3 h, compound 1 h, nigericin 30 min; human IL-10 (so in the source) in supernatant by ELISA
T1 construct: endogenous in cells; host or cells: THP-1 cells, PMA-differentiated, stimulated with LPS and nigericin
Procedure, shortened: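 PMA-differentiated (10 ng/mL, 16 h) THP-1 cells primed with 500 ng/mL LPS for 3 h in serum-free medium, then compound for 1 h (DMSO stock diluted 1:1000). Nigericin added for 30 min at 37 °C; IL-1β (printed as IL-10) in supernatant measured by ELISA.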

T1 sequence (Q96P20 whole entry): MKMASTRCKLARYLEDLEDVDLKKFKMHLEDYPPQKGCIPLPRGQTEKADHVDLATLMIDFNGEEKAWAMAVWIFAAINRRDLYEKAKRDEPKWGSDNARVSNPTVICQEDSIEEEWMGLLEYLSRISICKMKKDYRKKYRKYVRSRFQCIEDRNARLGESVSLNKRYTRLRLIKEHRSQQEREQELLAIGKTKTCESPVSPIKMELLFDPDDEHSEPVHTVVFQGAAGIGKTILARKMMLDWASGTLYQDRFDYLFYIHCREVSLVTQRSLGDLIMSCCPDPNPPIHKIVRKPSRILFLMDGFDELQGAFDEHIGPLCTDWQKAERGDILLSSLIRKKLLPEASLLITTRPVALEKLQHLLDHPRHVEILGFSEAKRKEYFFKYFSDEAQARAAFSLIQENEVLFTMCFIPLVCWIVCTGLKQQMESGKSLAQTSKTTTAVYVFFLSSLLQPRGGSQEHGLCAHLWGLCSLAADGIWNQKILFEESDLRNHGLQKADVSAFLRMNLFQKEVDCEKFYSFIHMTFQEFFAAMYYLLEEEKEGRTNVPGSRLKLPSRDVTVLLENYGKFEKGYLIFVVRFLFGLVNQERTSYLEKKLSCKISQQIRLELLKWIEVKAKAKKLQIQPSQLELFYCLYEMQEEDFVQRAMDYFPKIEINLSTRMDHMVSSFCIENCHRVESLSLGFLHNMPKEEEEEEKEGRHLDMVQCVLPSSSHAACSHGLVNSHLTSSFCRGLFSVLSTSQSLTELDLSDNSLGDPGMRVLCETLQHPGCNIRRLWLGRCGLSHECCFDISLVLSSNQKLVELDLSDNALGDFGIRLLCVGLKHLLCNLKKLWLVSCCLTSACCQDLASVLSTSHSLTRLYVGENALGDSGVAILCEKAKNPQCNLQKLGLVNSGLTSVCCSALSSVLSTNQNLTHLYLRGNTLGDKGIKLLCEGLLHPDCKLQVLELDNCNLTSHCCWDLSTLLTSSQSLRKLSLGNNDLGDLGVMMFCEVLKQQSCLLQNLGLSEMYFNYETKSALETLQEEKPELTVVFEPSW

## C#Cc1ccc(-c2nnc(N[C@@H]3CCCN(CCO)C3)c(=O)n2C)c(O)c1 [Compound 42, (R)-3-(4-ethynyl-2-hydroxyphenyl)-6-((1-(2-hydroxyethyl)piperidin-3-yl)amino)-4-methyl-1,2,4-triazin-5(4H)-one]
[1]; iv 1 mg/kg, read-out: AUClast iv (0-24 h)
  AUC(0-t): 2490 ng·h/mL
[1]; iv 1 mg/kg, read-out: Cl—obs iv (clearance rate) (converted)
  clearance: 6.65 mL/min/kg
[1]; iv 1 mg/kg, read-out: Vss iv (distribution volume)
  Vd: 0.694 L/kg
[1]; iv 1 mg/kg, read-out: tz1/2 iv (terminal half-life) (converted)
  half-life: 1.55 h
[1]; po 5 mg/kg vs iv 1 mg/kg, read-out: F% (absolute bioavailability)
  bioavailability: 77.8%
[1]; po 5 mg/kg, median, read-out: Tmax po (time to peak plasma concentration)
  Tmax: 1 h
[1]; po 5 mg/kg, read-out: AUClast po (0-24 h)
  AUC(0-t): 9720 ng·h/mL
[1]; po 5 mg/kg, read-out: Cmax po (peak concentration)
  Cmax: 2490 ng/mL
[1]; po 5 mg/kg, read-out: tz1/2 po (terminal half-life) (converted)
  half-life: 3.99 h
[2]
  microsomal CLint at 1 μM: 4.2 µL/min/mg
[2]; read-out: Rat t1/2
  half-life at 1 μM: 5.5 h
[3]
  microsomal CLint at 1 μM: 1.2 µL/min/mg
[3]; read-out: Canine t1/2
  half-life at 1 μM: 19.2 h
[4]
  IC50: 4.6 nM

— patent US20260167637A1, “NLRP3 INFLAMMASOME INHIBITOR AND USE THEREOF” (TransThera Sciences (Nanjing), Inc., priority 2022, published 2026)
